According to ChEMBL document CHEMBL1136833, “Novel non-peptide inhibitors targeting death receptor-mediated apoptosis” (Bioorg Med Chem Lett, 2003):
The source made the active and inactive calls. The calls are words filed in the database; no cut-off is given here.

Key:
[1] = tested on: SKW 6.4; experiment: Cytotoxicity against SK W6.4 cell growth (Type I); type: functional, cell-based; conditions: Homo sapiens
[2] = tested on: Jurkat; experiment: Cytotoxicity against Jurkat cell growth (Type II); type: functional, cell-based; conditions: Homo sapiens
[3] = tested on: Jurkat; experiment: Effective dose to inhibit staurosporine-induced apoptosis in Jurkat cells (Type II); NE=no effect; type: functional, cell-based; conditions: Homo sapiens
[4] = tested on: Jurkat; experiment: Effective dose to inhibit FasL-induced apoptosis in Jurkat cells (Type II); NE=no effect; type: functional, cell-based; conditions: Homo sapiens
[5] = tested on: SKW 6.4; experiment: Effective dose to inhibit staurosporine-induced apoptosis in SK W6.4 cells (Type I); NE=no effect; type: functional, cell-based; conditions: Homo sapiens
[6] = tested on: SKW 6.4; experiment: Effective dose to inhibit FasL-induced apoptosis in SK W6.4 cells (Type I); NE=no effect; type: functional, cell-based; conditions: Homo sapiens
[7] = tested on: SKW 6.4; experiment: Effective dose to inhibit FasL-induced apoptosis in SK W6.4 cells (Type I); type: functional; conditions: Homo sapiens, read-out: ED50 (the source's name)
[8] = tested on: SKW 6.4; experiment: Effective dose to inhibit staurosporine-induced apoptosis in SK W6.4 cells (Type I); type: functional; conditions: Homo sapiens, read-out: ED50 (the source's name)
[9] = tested on: Jurkat; experiment: Effective dose to inhibit staurosporine-induced apoptosis in Jurkat cells (Type II); type: functional; conditions: Homo sapiens, read-out: ED50 (the source's name)
[10] = tested on: Jurkat; experiment: Effective dose to inhibit FasL-induced apoptosis in Jurkat cells (Type II); type: functional; conditions: Homo sapiens, read-out: ED50 (the source's name)

| EC50 [7] | EC50 [8] | EC50 [9] | EC50 [10] | SMILES | IC50 [1] | IC50 [2] | ED50 [3] | ED50 [4] | ED50 [5] | ED50 [6] |
| --- | --- | --- | --- | --- | --- | --- | --- | --- | --- | --- |
| – | – | – | – | CCCC/C=C/C1=C(CO)C(=O)[C@H]2O[C@H]2C1=O | 7 µM | 10 µM | inactive | inactive | inactive | inactive |
| 10 µM | – | – | – | CCCC/C=C/C1=C(CO)[C@H](O)[C@H]2O[C@H]2C1=O | 35 µM | 15 µM | inactive | inactive | inactive | – |
| 5 µM | > 80 µM | > 80 µM | 6 µM | C/C=C/C1=C(CO)[C@H](O)[C@H]2O[C@H]2C1=O | > 80 µM | > 80 µM | – | – | – | – |
| 20 µM | > 80 µM | > 80 µM | 25 µM | C/C=C/C1=C(CO)[C@@H](O)[C@@H]2O[C@@H]2C1=O | 80 µM | 60 µM | – | – | – | – |
| 10 µM | > 80 µM | > 80 µM | 10 µM | C/C=C(\C)C1=C(CO)[C@H](O)[C@H]2O[C@H]2C1=O | > 80 µM | > 80 µM | – | – | – | – |
| – | – | – | – | C/C=C/C1=C(CO)C(=O)[C@H]2O[C@H]2C1=O | 9 µM | 8 µM | inactive | inactive | inactive | inactive |
| 20 µM | > 80 µM | > 80 µM | 25 µM | C/C=C/C1=C(CO)[C@H](OC)[C@H]2O[C@H]2C1=O | > 80 µM | > 80 µM | – | – | – | – |
| 10 µM | > 80 µM | > 80 µM | 18 µM | O=C1C=C(CO)[C@H](O)[C@H]2O[C@@H]12 | > 80 µM | > 80 µM | – | – | – | – |
| 4 µM | > 80 µM | > 80 µM | 6 µM | C=CC1=C(CO)[C@H](O)[C@H]2O[C@H]2C1=O | > 80 µM | > 80 µM | – | – | – | – |
| – | – | – | – | O=C1C(/C=C/c2ccccc2)=C(CO)[C@H](O)[C@H]2O[C@@H]12 | 30 µM | 20 µM | inactive | inactive | inactive | inactive |
